Source: US9034794B2, “Method for post-emergence crabgrass control” (FMC Corporation, priority 2007, dated 2015)

Tested on: Crabgrass (Digitaria sp.)
Test: Post-emergence control of crabgrass in greenhouse pots, application at the 1-2 leaf growth stage
Format: in vivo
Procedure: The compositions of the present invention were tested for herbicidal efficacy in the following manner:
For post-emergence testing, three disposable 3 inch square pots for each rate of application of each herbicide solution were filled with a soil, comprised of peat moss, vermiculite, bark ash, pine bark, limestone and a wetting agent (Metro Mix® 360 artificial soil, Scotts Company, Marysville, Ohio), to which about 20 to 30 crabgrass seeds (Digitaria sp.) seeds were planted. The pots were placed in a greenhouse and watered daily, thus allowing the seeds to germinate and the foliage to develop for 11 days, until the crabgrass was at the 1-2 leaf growth stage.
Pots designated for treatment were placed on a conveyor belt and the conveyor belt fed under a spray nozzle mounted about ten inches above the postemergent foliage. The spray of herbicidal solution was commenced and once stabilized; the pots were passed under the spray at a speed to receive a coverage equivalent of 30 gallons per acre. The application rates are those shown in Table 1 below for the individual herbicidal solutions and the herbicide compositions of the present invention. The post-emergence pots were immediately placed in the green-house and not watered for 24 hours after treatment. Thereafter they were regularly watered at ground level. The control of crabgrass was evaluated in each experimental test from 1 to 22 days after treatment (DAT). The results, shown as an average of the replications, were compared with results observed in untreated control pots in the same tests. All test treatments contained 0.25% (by volume) of a non-ionic surfactant.
Percent control was determined by comparing the treated plants to the untreated control using the following rating system:
The results, shown as an average of the replications, were compared with results observed in untreated control plots in the same trials.

In the case of CCCN(CCC)c1c([N+](=O)[O-])cc(C(F)(F)F)c(N)c1[N+](=O)[O-] [B, 2,4-dinitro-N^3,N^3-dipropyl-6-(trifluoromethyl)-1,3-benzenediamine], the Average % control (0.75 lb AI/Acre, 1 DAT) is reported as 0%, the Average % control (0.75 lb AI/Acre, 3 DAT) is reported as 0% and the Average % control (0.75 lb AI/Acre, 7 DAT) is reported as 0%. For the same compound, the Average % control (0.75 lb AI/Acre, 14 DAT) was 0% and the Average % control (0.75 lb AI/Acre, 22 DAT) was 0%.

In the case of Cc1nn(-c2cc(NS(C)(=O)=O)c(Cl)cc2Cl)c(=O)n1C(F)F [A, N-[2,4-dichloro-5-[4-(difluoromethyl)-4,5-dihydro-3-methyl-5-oxo-1H-1,2,4-triazol-1-yl]phenyl]methanesulfonamide], the Average % control (0.25 lb AI/Acre, 1 DAT) is reported as 20%, the Average % control (0.25 lb AI/Acre, 3 DAT) is reported as 20% and the Average % control (0.25 lb AI/Acre, 7 DAT) is reported as 5%. For the same compound, the Average % control (0.25 lb AI/Acre, 14 DAT) was 0%, the Average % control (0.25 lb AI/Acre, 22 DAT) was 0% and the Average % control (0.375 lb AI/Acre, 1 DAT) was 10%. It also gave an Average % control (0.375 lb AI/Acre, 3 DAT) of 25%, an Average % control (0.375 lb AI/Acre, 7 DAT) of 10% and an Average % control (0.375 lb AI/Acre, 14 DAT) of 0%. For the same compound, the Average % control (0.375 lb AI/Acre, 22 DAT) was 0%.
